Experimental findings from US20130315848A1, “COSMETIC COMPOSITION FOR SKIN WHITENING COMPRISING RESVERATROL” (DSM IP ASSETS B.V., priority 2010, published 2013) are described below.

The series can be described thus: Analysis of radioactivity in the formulations: trans/cis isomer content. The series is classed as physicochemical. The following applies: 14C radioactivity in formulation extracts. The source says: The different degree of isomerization could be explained by the extent of light exposure during the preparation of the cream and/or during the extraction procedure in the course of the series of experiments.

Consider “[phenyl-^14C]-resveratrol [^14C-Resveratrol stock solution]”, for which the Resveratrol cis isomer is given as 0% and the Resveratrol trans-isomer came out at 100%.
